Results reported in patent publication US20200131180A1, “POSITIVE ALLOSTERIC MODULATORS OF THE MUSCARINIC ACETYLCHOLINE RECEPTOR M1” (Vanderbilt University, priority 2018, published 2020).

Molecular target: T1, human mAChR M1 (Homo sapiens, UniProt P11229)
T1 sequence (P11229 1-460): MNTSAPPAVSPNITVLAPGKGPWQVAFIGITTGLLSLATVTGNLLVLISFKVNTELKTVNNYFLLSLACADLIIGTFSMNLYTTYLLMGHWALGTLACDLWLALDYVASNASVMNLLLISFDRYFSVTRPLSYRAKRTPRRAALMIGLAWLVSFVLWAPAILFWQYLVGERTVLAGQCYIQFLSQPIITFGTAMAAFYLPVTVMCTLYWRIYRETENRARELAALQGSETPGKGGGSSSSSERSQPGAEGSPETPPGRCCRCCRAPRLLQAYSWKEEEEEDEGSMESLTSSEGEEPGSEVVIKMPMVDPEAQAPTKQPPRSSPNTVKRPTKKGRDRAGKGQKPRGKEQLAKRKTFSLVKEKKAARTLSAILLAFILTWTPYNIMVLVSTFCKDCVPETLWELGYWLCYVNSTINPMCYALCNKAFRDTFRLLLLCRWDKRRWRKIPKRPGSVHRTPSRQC
Assay: mAChR M1 cell-based functional assay (calcium mobilization, PAM activity)
Settings: CHO-K1 cells expressing hM1, calcium flux (Fluo-4); for EC50: concentration-dependent increase in the EC20 acetylcholine response; for Emax: potentiation of EC20 acetylcholine response
Excerpt: Chinese hamster ovary (CHO-K1) cells stably expressing rat (r)M1 were purchased from the American Type Culture Collection and cultured according to their indicated protocol. CHO cells stably expressing human (h)M2, hM3, and hM5 were described previously (Levey, et al., 1991); hM1 and hM4 cDNAs were purchased from Missouri S&T cDNA Resource; rM4 cDNA was provided by T. I. Bonner (National Institutes of Health, Bethesda, Md.). rM2 and rM3 were cloned from a rat brain cDNA library and sequence verified. hM1, rM2, rM3, hM4, and rM4 cDNAs were used to stably transfect CHO-K1 cells purchased from the American Type Culture Collection using Lipofectamine 2000. To make stable rM2, hM2, rM3, hM4, and rM4 cell lines for use in calcium mobilization assays, these cells also were stably transfected with a chimeric G-protein (Gqi5) (provided by B. R. Conklin, University of California, San Francisco) using Lipofectamine 2000. rM1, hM1, rM3, hM3, rM5, and hM5 cells were grown in Ham's F-12 medium containing 10% heat-inactivated fetal bovine serum (FBS), 20 mM HEPES, and 50 μg/mL G418 sulfate. rM2-Gqi5, hM2-Gqi5, and hM4-Gqi5 cells were grown in the same medium also containing 500 μg/mL Hygromycin B. Stable rM4-Gqi5 cells were grown in DMEM containing 10% heat-inactivated FBS, 20 mM HEPES, 400 μg/mL G418 sulfate, and 500 μg/mL Hygromycin B.
For high throughput measurement of agonist-evoked increases in intracellular calcium, CHO-K1 cells stably expressing muscarinic receptors were plated in growth medium lacking G418 and hygromycin at 15,000 cells/20 μL/well in Greiner 384-well black-walled, tissue culture (TC)-treated, clear-bottom plates (VWR). Cells were incubated overnight at 37° C. and 5% CO2. The next day, cells were washed using an ELX 405 (BioTek) with four washes (80 μL) of assay buffer then aspirated to 20 μL. Next, 20 μL of 16 μM Fluo-4/acetoxymethyl ester (Invitrogen, Carlsbad, Calif.) prepared as a 2.3 mM stock in DMSO and mixed in a 1:1 ratio with 10% (w/v) Pluronic F-127 and diluted in assay buffer was added to the wells and the cell plates were incubated for 50 min at 37° C. and 5% CO2. Dye was removed by washing with the ELX 405 (four 80 μL washes of assay buffer) then aspirated to 20 μL. Compound master plates were formatted in an 11 point CRC format (1:3 dilutions) in 100% DMSO with a starting concentration of 10 mM using the BRAVO liquid handler (Agilent). Test compound CRCs were then transferred to daughter plates (240 nL) using the Echo acoustic plate reformatter (Labcyte, Sunnyvale, Calif.) and then diluted into assay buffer (40 μL) to a 2× stock using a Thermo Fisher Combi (Thermo Fisher Scientific, Waltham, Mass.).
Calcium flux was measured using the Functional Drug Screening System (FDSS) 6000 (Hamamatsu Corporation, Tokyo, Japan) as an increase in the fluorescent static ratio. Compounds were applied to cells (20 μL, 2×) using the automated system of the FDSS 6000 at 4 s into the 300 s protocol and the data were collected at 1 Hz. At 144 s into the 300s protocol, 10 μL of an EC20 concentration of the muscarinic receptor agonist acetylcholine was added (5×), followed by the addition of 12 μL an EC80 concentration of acetylcholine at the 230 s time point (5×). Agonist activity was analyzed as a concentration-dependent increase in calcium mobilization upon compound addition. Emax values for agonist activity are expressed relative to the maximum for acetylcholine. Positive allosteric modulator activity was analyzed as a concentration-dependent increase in the EC20 acetylcholine response. Antagonist activity was analyzed as a concentration-dependent decrease in the EC80 acetylcholine response. Concentration-response curves were generated using a four-parameter logistical equation in XLfit curve fitting software (IDBS, Bridgewater, N.J.) for Excel (Microsoft, Redmond, Wash.) or Prism (GraphPad Software, Inc., San Diego, Calif.). […]

Cn1cc(-c2cc(F)c(Cc3cc(C(=O)N[C@H]4CCCC[C@@H]4O)c4nccn4c3)c(F)c2)cn1 [compound 40, 6-[[2,6-difluoro-4-(1-methylpyrazol-4-yl)phenyl]methyl]-N-[(1S,2S)-2-hydroxycyclohexyl]imidazo[1,2-a]pyridine-8-carboxamide]
EC50: 751 nM
Emax: 58%

Cn1ccc(-c2cc(F)c(Cc3cc(C(=O)N[C@H]4CCOC[C@@H]4O)c4ncnn4c3)c(F)c2)n1 [compound 41, 6-[[2,6-difluoro-4-(1-methylpyrazol-3-yl)phenyl]methyl]-N-[(3R,4S)-3-hydroxytetrahydropyran-4-yl]-[1,2,4]triazolo[1,5-a]pyridine-8-carboxamide]
EC50: 1200 nM
Emax: 76%

Cn1ccc(-c2cc(F)c(Cc3cc(C(=O)N[C@H]4CCCC[C@@H]4O)c4ncnn4c3)c(F)c2)n1 [compound 42, 6-[[2,6-difluoro-4-(1-methylpyrazol-3-yl)phenyl]methyl]-N-[(1S,2S)-2-hydroxycyclohexyl]-[1,2,4]triazolo[1,5-a]pyridine-8-carboxamide]
EC50: 936 nM
Emax: 83%

Cn1cc(-c2cc(F)c(Cc3cc(C(=O)N[C@H]4CCOC[C@@H]4O)c4ncnn4c3)c(F)c2)cn1 [compound 43, 6-[[2,6-difluoro-4-(1-methylpyrazol-4-yl)phenyl]methyl]-N-[(3R,4S)-3-hydroxytetrahydropyran-4-yl]-[1,2,4]triazolo[1,5-a]pyridine-8-carboxamide]
EC50: 691 nM
Emax: 84%

Cn1cc(-c2cc(F)c(Cc3cc(C(=O)N[C@H]4CCCC[C@@H]4O)c4ncnn4c3)c(F)c2)cn1 [compound 44, 6-[[2,6-difluoro-4-(1-methylpyrazol-4-yl)phenyl]methyl]-N-[(1S,2S)-2-hydroxycyclohexyl]-[1,2,4]triazolo[1,5-a]pyridine-8-carboxamide]
EC50: 387 nM
Emax: 82%

Cn1ccc(-c2ccc(Cc3cc(C(=O)N[C@H]4CCOC[C@@H]4O)c4ncnn4c3)c(F)c2)n1 [compound 45, 6-[[2-fluoro-4-(1-methylpyrazol-3-yl)phenyl]methyl]-N-[(3R,4S)-3-hydroxytetrahydropyran-4-yl]-[1,2,4]triazolo[1,5-a]pyridine-8-carboxamide]
EC50: 693 nM
Emax: 82%

Cn1ccc(-c2ccc(Cc3cc(C(=O)N[C@H]4CCCC[C@@H]4O)c4ncnn4c3)c(F)c2)n1 [compound 46, 6-[[2-fluoro-4-(1-methylpyrazol-3-yl)phenyl]methyl]-N-[(1S,2S)-2-hydroxycyclohexyl]-[1,2,4]triazolo[1,5-a]pyridine-8-carboxamide]
EC50: 742 nM
Emax: 79%

Cn1cc(-c2ccc(Cc3cc(C(=O)N[C@H]4CCOC[C@@H]4O)c4ncnn4c3)c(F)c2)cn1 [compound 47, 6-[[2-fluoro-4-(1-methylpyrazol-4-yl)phenyl]methyl]-N-[(3R,4S)-3-hydroxytetrahydropyran-4-yl]-[1,2,4]triazolo[1,5-a]pyridine-8-carboxamide]
EC50: 404 nM
Emax: 77%

Cn1cc(-c2ccc(Cc3cc(C(=O)N[C@H]4CCCC[C@@H]4O)c4ncnn4c3)c(F)c2)cn1 [compound 48, 6-[[2-fluoro-4-(1-methylpyrazol-4-yl)phenyl]methyl]-N-[(1S,2S)-2-hydroxycyclohexyl]-[1,2,4]triazolo[1,5-a]pyridine-8-carboxamide]
EC50: 229 nM
Emax: 76%

Cn1cc(-c2cc(F)c(Cc3cc(C(=O)N[C@H]4CCOC[C@@H]4O)c4nccn4c3)c(F)c2)cn1 [compound 49, 6-[[2,6-difluoro-4-(1-methylpyrazol-4-yl)phenyl]methyl]-N-[(3R,4S)-3-hydroxytetrahydropyran-4-yl]imidazo[1,2-a]pyridine-8-carboxamide]
EC50: 474 nM
Emax: 67%

Cc1c(Cc2ccc(-c3ccn(C)n3)cc2)cc(C(=O)N[C@H]2CCOC[C@@H]2O)c2nccn12 [compound 50, N-[(3R,4S)-3-hydroxytetrahydropyran-4-yl]-5-methyl-6-[[4-(1-methylpyrazol-3-yl)phenyl]methyl]imidazo[1,2-a]pyridine-8-carboxamide]
EC50: 24.6 nM
Emax: 53%

Cc1c(Cc2ccc(-c3ccn(C)n3)cc2)cc(C(=O)N[C@H]2CCCC[C@@H]2O)c2nccn12 [compound 51, N-[(1S,2S)-2-hydroxycyclohexyl]-5-methyl-6-[[4-(1-methylpyrazol-3-yl)phenyl]methyl]imidazo[1,2-a]pyridine-8-carboxamide]
EC50: 138 nM
Emax: 59%

Cn1ccc(-c2ccc(Cc3cc(C(=O)N[C@H]4CCCC[C@@H]4O)c4nccn4c3)c(F)c2)n1 [compound 52, 6-[[2-fluoro-4-(1-methylpyrazol-3-yl)phenyl]methyl]-N-[(1S,2S)-2-hydroxycyclohexyl]imidazo[1,2-a]pyridine-8-carboxamide]
EC50: 414 nM
Emax: 70%

Cn1ccc(-c2ccc(Cc3cc(C(=O)N[C@H]4CCOC[C@@H]4O)c4nccn4c3)c(F)c2)n1 [compound 53, 6-[[2-fluoro-4-(1-methylpyrazol-3-yl)phenyl]methyl]-N-[(3R,4S)-3-hydroxytetrahydropyran-4-yl]imidazo[1,2-a]pyridine-8-carboxamide]
EC50: 249 nM
Emax: 66%

Cn1cc(-c2ccc(Cc3cc(C(=O)N[C@H]4CCCC[C@@H]4O)c4nccn4c3)c(F)c2)cn1 [compound 54, 6-[[2-fluoro-4-(1-methylpyrazol-4-yl)phenyl]methyl]-N-[(1S,2S)-2-hydroxycyclohexyl]imidazo[1,2-a]pyridine-8-carboxamide]
EC50: 217 nM
Emax: 70%

Cn1cc(-c2ccc(Cc3cc(C(=O)N[C@H]4CCOC[C@@H]4O)c4nccn4c3)c(F)c2)cn1 [compound 55, 6-[[2-fluoro-4-(1-methylpyrazol-4-yl)phenyl]methyl]-N-[(3R,4S)-3-hydroxytetrahydropyran-4-yl]imidazo[1,2-a]pyridine-8-carboxamide]
EC50: 123 nM
Emax: 65%

Cc1c(Cc2ccc(-c3cnn(C)c3)cc2F)cc(C(=O)N[C@H]2CCOC[C@@H]2O)c2nccn12 [compound 56, 6-[[2-fluoro-4-(1-methylpyrazol-4-yl)phenyl]methyl]-N-[(3R,4S)-3-hydroxytetrahydropyran-4-yl]-5-methyl-imidazo[1,2-a]pyridine-8-carboxamide]
EC50: 32.2 nM
Emax: 72%

Cc1c(Cc2ccc(-c3cnn(C)c3)cc2F)cc(C(=O)N[C@H]2CCCC[C@@H]2O)c2nccn12 [compound 57, 6-[[2-fluoro-4-(1-methylpyrazol-4-yl)phenyl]methyl]-N-[(1S,2S)-2-hydroxycyclohexyl]-5-methyl-imidazo[1,2-a]pyridine-8-carboxamide]
EC50: 97.8 nM
Emax: 68%
